US20040224981A1, “Antibacterial methods and compositions” (priority 2003, published 2004)
Converted amounts (≈) assume the structure as drawn. Where two headings read alike, the source gives them in different places.

Columns and labels:
[1] = tested on: S. aureus RN4220 (pYH4-MRS); assay: Mode of action: MIC with MRS over-production; assay type: cell-based; details: S. aureus RN4220 (pYH4-MRS), +aTC (MRS over-expression)
Procedure: The strain expresses high levels of MRS upon the addition of 0.01 μg/mL of anyhdrotetracycline.

[2] = tested on: mupirocin-resistant S. aureus; details: cited from earlier work
[3] = tested on: S. aureus ATCC 29213 and 31-1334; assay: Selection of spontaneous resistant mutants (mutation frequency); assay type: cell-based, Staphylococcus aureus
Procedure: Approximately, 10^9 bacteria were plated onto Mueller-Hinton agar supplemented with 10% horse blood and containing various concentrations of the test compounds alone and in combination. After 24 and 48 hours of incubation at 35° C., the bacterial colonies were counted and the frequencies of mutation were determined relative to the total viable count of organisms that were plated. Resistant clones were re-plated once on plates containing the same concentration of agent that was used for the selection.

E. faecium = assay: MIC against E. faecium; assay type: cell-based
Procedure: MRSi compound 5 alone and in combination with mupirocin was tested recent clinical isolates of E. faecalis (n=28) and E. faecium (n=23). Both the acetate salt and mupirocinate salts of MRSi compound 5 maintained potent activity against vancomycin-susceptible and—resistant enterococci (Tables 8, 9, and 10).

S. pyogenes = assay: Development of resistance following serial passage, S. pyogenes; assay type: cell-based; details: Streptococcus pyogenes
Procedure: (§1) MRSi compound 5 (acetate salt), mupirocin and MRSi compound 5/mupirocin 1:1 combination were tested for development of resistance following serial passage using 19 isolates, including S. aureus, coagulase-negative staphylococci and S. pyogenes strains.

S. hemolyticus = assay: Development of resistance following serial passage, S. hemolyticus; assay type: cell-based
Procedure: as §1

S. aureus = assay: Development of resistance following serial passage, S. aureus; assay type: cell-based; details: Staphylococcus aureus
Procedure: as §1

S. epidermidis = assay: Development of resistance following serial passage, S. epidermidis; assay type: cell-based; details: Staphylococcus epidermidis
Procedure: as §1

[4] = recent clinical isolates of E. faecium, ALL (23)

In the case of `C/C(=C\C(=O)OCCCCCCCCC(=O)O)C[C@@H]1OC[C@H](C[C@@H]2O[C@H]2[C@@H](C)[C@H](C)O)[C@@H](O)[C@H]1O` [Mupirocin, Pseudomonic acid A], the MIC [1] is given as 0.06 µg/mL (≈ 0.12 µM), the “MICs, high level resistance (mupA)” value ([2]; high level mupirocin resistance, plasmid-encoded IRS enzyme) is given as > 512 µg/mL and the “MIC's, low level resistance” value ([2]; low level mupirocin resistance (mutations in chromosomal isoleucyl tRNA synthetase)) is given as 8 to 256 µg/mL. For the same molecule, the “Mutation Frequency (48 hours)” value ([3]; S. aureus 31-1334 (low level mupirocin-resistant), selecting concentration 2 x MIC) was 1.8 × 10^−8, the “Mutation Frequency (48 hours)” value ([3]; S. aureus 31-1334 (low level mupirocin-resistant), selecting concentration 4 x MIC) was 2 × 10^−9 and the “Mutation Frequency (48 hours)” value ([3]; S. aureus 31-1334 (low level mupirocin-resistant), selecting concentration 8 x MIC) was <1 × 10^−9. For the same molecule, the “Mutation Frequency (48 hours)” value ([3]; S. aureus ATCC 29213 (mupirocin susceptible), selecting concentration 2 x MIC) was 1.25 × 10^−7, the “Mutation Frequency (48 hours)” value ([3]; S. aureus ATCC 29213 (mupirocin susceptible), selecting concentration 4 x MIC) was 1.01 × 10^−7 and the “Mutation Frequency (48 hours)” value ([3]; S. aureus ATCC 29213 (mupirocin susceptible), selecting concentration 8 x MIC) was 2.57 × 10^−8. For the same molecule, the MIC50 (E. faecium; E. faecium, Van-R(12)) was 1 µg/mL, the MIC90 (E. faecium; E. faecium, Van-R(12)) was > 8 µg/mL and the Mode (MIC) (E. faecium; E. faecium, Van-R(12)) was 1 µg/mL. The MIC50 (E. faecium; E. faecium, Van-S (11)) was 1 µg/mL, the MIC90 (E. faecium; E. faecium, Van-S (11)) was 1 µg/mL and the Mode (MIC) (E. faecium; E. faecium, Van-S (11)) was 1 µg/mL. For the same molecule, the “Range (MIC)” value (E. faecium; E. faecium, Van-S (11), in µg/mL) was 0.25-1, the MIC (E. faecium; Enterococcus faecium, ATCC33667, Table 8, E. faecium ATCC 33667, read-out: MIC) was 1 µg/mL and the MIC50 (E. faecium; [4]) was 1 µg/mL. The MIC90 (E. faecium; [4]) was > 8 µg/mL and the Mode (MIC) (E. faecium; [4]) was 1 µg/mL.

For `C=C(F)c1sc(CNCCCNc2cc(=O)c3ccccc3[nH]2)c(C)c1Br` [MRSi Cmpd 5 acetate, N-(4-bromo-5-(1-fluorovinyl)-3-methylthiophen-2-ylmethyl)-N′-(1H-quinolin-4-one)propane-1,3-diamine], the MIC50 (E. faecium; E. faecium, Van-R(12)) was < 0.004 µg/mL, the MIC90 (E. faecium; E. faecium, Van-R(12)) was < 0.004 µg/mL and the Mode (MIC) (E. faecium; E. faecium, Van-R(12)) was < 0.004 µg/mL. The “Range (MIC)” value (E. faecium; E. faecium, Van-R(12), in µg/mL) was <0.004-0.03, the MIC50 (E. faecium; E. faecium, Van-S (11)) was “≦0.004” and the MIC90 (E. faecium; E. faecium, Van-S (11)) was “≦0.004”. The “Mode (MIC)” value (E. faecium; E. faecium, Van-S (11)) was “≦0.004”, the “Range (MIC)” value (E. faecium; E. faecium, Van-S (11)) was “≦0.004” and the MIC50 (E. faecium; [4]) was < 0.004 µg/mL. For the same molecule, the MIC90 (E. faecium; [4]) was < 0.004 µg/mL, the Mode (MIC) (E. faecium; [4]) was < 0.004 µg/mL and the “Range (MIC)” value (E. faecium; recent clinical isolates of E. faecium, ALL (23), in µg/mL) was <0.004-0.03. The MIC (S. pyogenes; ATCC19615, read-out: Final MIC after 20 passages) was 1 µg/mL, the MIC (S. pyogenes; read-out: Final MIC after 20 passages) was 1 µg/mL and the MIC (S. hemolyticus; NRS116, read-out: Final MIC after 20 passages) was 16 µg/mL. It also gave an MIC (S. hemolyticus; NRS116, read-out: Initial MIC) of 0.12 µg/mL, an MIC (S. aureus; ATCC29213, read-out: Final MIC after 20 passages, S. aureus ATCC 29213) of 4 µg/mL and an MIC (S. aureus; ATCC29213, read-out: Initial MIC, S. aureus ATCC 29213) of 0.06 µg/mL. It also gave an MIC (S. aureus; ATCC43300, read-out: Final MIC after 20 passages, S. aureus ATCC 43300 (ORSA)) of 1 µg/mL, an MIC (S. aureus; ATCC43300, read-out: Initial MIC, S. aureus ATCC 43300 (ORSA)) of 0.06 µg/mL and an MIC (S. aureus; NRS103, read-out: Final MIC after 20 passages, S. aureus NRS103 (ORSA)) of 1 µg/mL. It also gave an MIC (S. aureus; NRS103, read-out: Initial MIC, S. aureus NRS103 (ORSA)) of 0.12 µg/mL, an MIC (S. aureus; NRS107, read-out: Final MIC after 20 passages, S. aureus NRS107 (HL-MupR)) of 0.5 µg/mL and an MIC (S. aureus; NRS107, read-out: Initial MIC, S. aureus NRS107 (HL-MupR)) of 0.015 µg/mL. For the same molecule, the MIC (S. aureus; read-out: Final MIC after 20 passages, S. aureus 10-420 (HL-MupR)) was 8 µg/mL, the MIC (S. aureus; read-out: Final MIC after 20 passages, S. aureus 25-670 (HL-MupR)) was 8 µg/mL and the MIC (S. aureus; read-out: Final MIC after 20 passages, S. aureus 31-1334 (LL-MupR)) was 8 µg/mL. The MIC (S. aureus; read-out: Final MIC after 20 passages, S. aureus 87-2797 (HL-MupR)) was 16 µg/mL, the MIC (S. aureus; read-out: Final MIC after 20 passages, S. aureus 1079077 (ORSA)) was 16 µg/mL and the MIC (S. aureus; read-out: Final MIC after 20 passages, S. aureus 1079101 (HL-MupR)) was 16 µg/mL. For the same molecule, the MIC (S. aureus; read-out: Final MIC after 20 passages, S. aureus LZ6 (HL-MupR)) was 2 µg/mL, the MIC (S. aureus; read-out: Initial MIC, S. aureus 1079077 (ORSA)) was 0.25 µg/mL and the MIC (S. epidermidis; NRS8, read-out: Initial MIC, S. epidermidis NRS8 (LL-MupR)) was 0.06 µg/mL. For the same molecule, the MIC (S. epidermidis; read-out: Final MIC after 20 passages, S. epidermidis 936528 (HL-MupR)) was 0.5 µg/mL, the MIC (S. epidermidis; read-out: Final MIC after 20 passages, S. epidermidis 936606 (Oxa-R)) was 16 µg/mL and the MIC (S. epidermidis; read-out: Initial MIC, S. epidermidis 936528 (HL-MupR)) was 0.03 µg/mL. The MIC (S. epidermidis; read-out: Initial MIC, S. epidermidis 936606 (Oxa-R)) was 0.06 µg/mL.
